From patent US6355799B1, “Substituted benzene compounds, process for their preparation, and herbicidal and defoliant compositions containing them” (ISK Americas Incorporated, priority 1997, dated 2002)

Legend:
Assay type in all cases: in vivo
[1] = tested on: field corn (Zea mays L., var. Dekalb 535, CORN); assay: Post-emerge test, crop safety; conditions: post-emerge, 14 days after application, rating scale 0-100
How it was run: (§1)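 Compounds in acetone were track-sprayed at 187 l/ha, 15–1000 g ai/ha, onto sandy loam pots. Pre-emerge seeds were sown one day before spraying, with surface watering afterwards. Post-emerge plants were at the 2–3 leaf stage and sprayed with 0.25% v/v non-ionic surfactant. Injury was rated 0–100 at 14 days.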

[2] = tested on: upland rice (Oryza sp., var. Tebonnet, RICE); assay: Post-emerge test, crop safety; conditions: post-emerge, 14 days after application, rating scale 0-100
How it was run: as §1

[3] = tested on: johnsongrass (Sorghum halepense, SORHA); assay: Post-emerge test, greenhouse herbicide activity screening; conditions: post-emerge, 14 days after application, rating scale 0-100
How it was run: (§2)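 Sandy loam pots; pre-emerge: sown 1 d pre-spray, surface-watered after, then bottom-watered. Post-emerge: sown 8–21 d before, 2–3 leaf stage, + 0.25% v/v NIS, bottom-watered. Acetone, 187 l/ha track spray, 15–1000 g ai/ha. 0–100 injury score, day 14.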

[4] = tested on: sicklepod (Cassia obtusifolia, CASOB); assay: as above; conditions: post-emerge, 14 days after application, rating scale 0-100
How it was run: as §2

[5] = tested on: redroot pigweed (Amaranthus retroflexus, AMARE); assay: as above; conditions: post-emerge, 14 days after application
How it was run: as §2

[6] = tested on: velvetleaf (Abutilon theophrasti, ABUTH); assay: as above; conditions: post-emerge, 14 days after application, rating scale 0-100
How it was run: as §2

[7] = tested on: barnyardgrass (Echinochloa crus-galli, ECHCG); assay: as above; conditions: post-emerge, 14 days after application, rating scale 0-100
How it was run: as §2

[8] = tested on: green foxtail (Setaria viridis, SETVI); assay: as above; conditions: post-emerge, 14 days after application, rating scale 0-100
How it was run: as §2

[9] = tested on: lambsquarters (Chenopodium album, CHEAL); assay: as above; conditions: post-emerge, 14 days after application, rating scale 0-100
How it was run: as §2

[10] = tested on: large crabgrass (Digitaria sanguinalis, DIGSA); assay: as above; conditions: post-emerge, 14 days after application, rating scale 0-100
How it was run: as §2

[11] = tested on: ivyleaf morningglory (Ipomoea hederacea, IPOHE); assay: as above; conditions: post-emerge, 14 days after application, rating scale 0-100
How it was run: as §2

[12] = tested on: johnsongrass (Sorghum halepense, SORHA); assay: Pre-emerge test, greenhouse herbicide activity screening; conditions: pre-emerge, 14 days after application, rating scale 0-100
How it was run: as §1

[13] = tested on: sicklepod (Cassia obtusifolia, CASOB); assay: as above; conditions: pre-emerge, 14 days after application, rating scale 0-100
How it was run: as §1

[14] = tested on: velvetleaf (Abutilon theophrasti, ABUTH); assay: as above; conditions: pre-emerge, 14 days after application, rating scale 0-100
How it was run: as §1

[15] = tested on: barnyardgrass (Echinochloa crus-galli, ECHCG); assay: as above; conditions: pre-emerge, 14 days after application, rating scale 0-100
How it was run: as §1

[16] = tested on: green foxtail (Setaria viridis, SETVI); assay: as above; conditions: pre-emerge, 14 days after application, rating scale 0-100
How it was run: as §1

[17] = tested on: lambsquarters (Chenopodium album, CHEAL); assay: as above; conditions: pre-emerge, 14 days after application, rating scale 0-100
How it was run: as §1

[18] = tested on: large crabgrass (Digitaria sanguinalis, DIGSA); assay: as above; conditions: pre-emerge, 14 days after application, rating scale 0-100
How it was run: as §1

[19] = tested on: ivyleaf morningglory (Ipomoea hederacea, IPOHE); assay: as above; conditions: pre-emerge, 14 days after application, rating scale 0-100
How it was run: as §1

[20] = tested on: field corn (Zea mays L., var. Dekalb 535, CORN); assay: Pre-emerge test, crop safety; conditions: pre-emerge, 14 days after application, rating scale 0-100
How it was run: (§3)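 Rating: 0–100 visual injury, 14 DAA. Application: acetone, 187 l/ha, 15–1000 g ai/ha, flat-fan track sprayer with nozzle 40–45 cm above soil or canopy. Post-emerge runs used 0.25% v/v surfactant on 2–3 leaf plants.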

[21] = tested on: upland rice (Oryza sp., var. Tebonnet, RICE); assay: Pre-emerge test, crop safety; conditions: pre-emerge, 14 days after application, rating scale 0-100
How it was run: as §3

[22] = tested on: redroot pigweed (Amaranthus retroflexus, AMARE); assay: Pre-emerge test, greenhouse herbicide activity screening; conditions: pre-emerge, 14 days after application, rating scale 0-100
How it was run: as §1

In the case of `CCOC(=O)CC(C)=NNc1c(OC)c(Cl)cc(F)c1-n1c(=O)cc(C(F)(F)F)n(C)c1=O` [15-16], the “Post-emerge Herbicidal Activity CORN (crop damage rating)” value ([1]; 63 g ai/ha) is reported as 15, the “Post-emerge Herbicidal Activity CORN (crop damage rating)” value ([1]; 250 g ai/ha) is reported as 45 and the “Post-emerge Herbicidal Activity RICE (crop damage rating)” value ([2]; 63 g ai/ha) is reported as 40. For the same compound, the “Post-emerge Herbicidal Activity RICE (crop damage rating)” value ([2]; 250 g ai/ha) was 80, the “Post-emerge Herbicidal Activity SORHA (phytotoxicity rating)” value ([3]; 63 g ai/ha) was 10 and the “Post-emerge Herbicidal Activity SORHA (phytotoxicity rating)” value ([3]; 250 g ai/ha) was 70. For the same compound, the “Post-emerge Herbicidal Activity CASOB (phytotoxicity rating)” value ([4]; 63 g ai/ha) was 80, the “Post-emerge Herbicidal Activity CASOB (phytotoxicity rating)” value ([4]; 250 g ai/ha) was 100 and the “Post-emerge Herbicidal Activity AMARE (phytotoxicity rating)” value ([5]; 63 g ai/ha, rating scale 0-100 (0 no damage, 100 complete death)) was 80. The “Post-emerge Herbicidal Activity AMARE (phytotoxicity rating)” value ([5]; 250 g ai/ha, rating scale 0-100) was 100, the “Post-emerge Herbicidal Activity ABUTH (phytotoxicity rating)” value ([6]; 63 g ai/ha) was 100 and the “Post-emerge Herbicidal Activity ABUTH (phytotoxicity rating)” value ([6]; 250 g ai/ha) was 100. The “Post-emerge Herbicidal Activity ECHCG (phytotoxicity rating)” value ([7]; 63 g ai/ha) was 10, the “Post-emerge Herbicidal Activity ECHCG (phytotoxicity rating)” value ([7]; 250 g ai/ha) was 90 and the “Post-emerge Herbicidal Activity SETVI (phytotoxicity rating)” value ([8]; 63 g ai/ha) was 30. The “Post-emerge Herbicidal Activity SETVI (phytotoxicity rating)” value ([8]; 250 g ai/ha) was 60, the “Post-emerge Herbicidal Activity CHEAL (phytotoxicity rating)” value ([9]; 63 g ai/ha) was 100 and the “Post-emerge Herbicidal Activity CHEAL (phytotoxicity rating)” value ([9]; 250 g ai/ha) was 100. The “Post-emerge Herbicidal Activity DIGSA (phytotoxicity rating)” value ([10]; 63 g ai/ha) was 20, the “Post-emerge Herbicidal Activity DIGSA (phytotoxicity rating)” value ([10]; 250 g ai/ha) was 80 and the “Post-emerge Herbicidal Activity IPOHE (phytotoxicity rating)” value ([11]; 63 g ai/ha) was 100. The “Post-emerge Herbicidal Activity IPOHE (phytotoxicity rating)” value ([11]; 250 g ai/ha) was 100, the “phytotoxicity rating SORHA” value ([12]; 63 g ai/ha) was 100 and the “phytotoxicity rating SORHA” value ([12]; 250 g ai/ha) was 100. For the same compound, the “phytotoxicity rating CASOB” value ([13]; 63 g ai/ha) was 90, the “phytotoxicity rating CASOB” value ([13]; 250 g ai/ha) was 100 and the “phytotoxicity rating ABUTH” value ([14]; 63 g ai/ha) was 100. For the same compound, the “phytotoxicity rating ABUTH” value ([14]; 250 g ai/ha) was 100, the “phytotoxicity rating ECHCG” value ([15]; 63 g ai/ha) was 80 and the “phytotoxicity rating ECHCG” value ([15]; 250 g ai/ha) was 100. The “phytotoxicity rating SETVI” value ([16]; 63 g ai/ha) was 100, the “phytotoxicity rating SETVI” value ([16]; 250 g ai/ha) was 100 and the “phytotoxicity rating CHEAL” value ([17]; 63 g ai/ha) was 100. The “phytotoxicity rating CHEAL” value ([17]; 250 g ai/ha) was 100, the “phytotoxicity rating DIGSA” value ([18]; 63 g ai/ha) was 100 and the “phytotoxicity rating DIGSA” value ([18]; 250 g ai/ha) was 100. For the same compound, the “phytotoxicity rating IPOHE” value ([19]; 63 g ai/ha) was 90, the “phytotoxicity rating IPOHE” value ([19]; 250 g ai/ha) was 100 and the “phytotoxicity rating CORN” value ([20]; 63 g ai/ha) was 65. The “phytotoxicity rating CORN” value ([20]; 250 g ai/ha) was 100, the “phytotoxicity rating RICE” value ([21]; 63 g ai/ha) was 90 and the “phytotoxicity rating RICE” value ([21]; 250 g ai/ha) was 100. For the same compound, the “phytotoxicity rating AMARE” value ([22]; 63 g ai/ha) was 100 and the “phytotoxicity rating AMARE” value ([22]; 250 g ai/ha) was 100.
